Results reported in the NIST ThermoML archive (doi:10.1016/j.tca.2004.08.001).

Key:
[1] = 101.33 kPa, Liquid; for speed of sound: Linear variable-path acoustic interferometer
[2] = refractive index (Na D-line) (dimensionless); conditions: 101.33 kPa, Liquid, Standard Abbe refractometry
[3] = xn = mol fraction of the nth substance listed; conditions: 303.15 K, 101.3 kPa, Liquid; for speed of sound: Linear variable-path acoustic interferometer
[4] = refractive index (Na D-line) (dimensionless); xn = mol fraction of the nth substance listed; conditions: 303.15 K, 101.3 kPa, Liquid, Standard Abbe refractometry

ClC(Cl)C(Cl)Cl [1,1,2,2-tetrachloroethane]
303.15 K
Conditions | mass density [kg/m3] | refractive index | speed of sound [m/s] | viscosity [mPa·s]
[1] | 1578.6 | – | 1135 | 1.457
[2] | – | 1.4881 | – | –

ClC(Cl)C(Cl)Cl [1,1,2,2-tetrachloroethane] + C1CCOC1
Conditions | mass density, [3] [kg/m3] | refractive index, [4] | speed of sound, [3] [m/s] | viscosity, [3] [mPa·s]
x2 = 0.1023 | 1523.21 | 1.483 | 1138 | 1.389
x2 = 0.2128 | 1460.02 | 1.476 | 1143 | 1.307
x2 = 0.3093 | 1401.59 | 1.4701 | 1149 | 1.227
x2 = 0.4056 | 1340.18 | 1.4639 | 1157 | 1.136
x2 = 0.5093 | 1270.31 | 1.4556 | 1168 | 1.029
x2 = 0.6032 | 1203.28 | 1.4472 | 1180 | 0.9116
x2 = 0.7046 | 1126.91 | 1.4368 | 1195 | 0.786
x2 = 0.8008 | 1050.12 | 1.4268 | 1212 | 0.6647
x2 = 0.8973 | 968.58 | 1.416 | 1231 | 0.5519

CCCCCCBr [1-bromohexane]
Conditions | mass density, [1] [kg/m3] | refractive index, [2] | speed of sound, [1] [m/s] | viscosity, [1] [mPa·s]
298.15 K | 1169.62 | 1.4464 | – | –
303.15 K | 1162.67 | 1.4441 | 1075 | 0.903

CCCCCCBr [1-bromohexane] + C1CCOC1
Conditions | mass density, [3] [kg/m3] | refractive index, [4] | speed of sound, [3] [m/s] | viscosity, [3] [mPa·s]
x2 = 0.0976 | 1146.32 | 1.442 | 1087 | 0.8602
x2 = 0.3008 | 1107.3 | 1.4368 | 1119 | 0.7753
x2 = 0.4975 | 1061.2 | 1.4307 | 1154 | 0.6995
x2 = 0.696 | 1002.92 | 1.4223 | 1194 | 0.6258
x2 = 0.9 | 924.62 | 1.4105 | 1235 | 0.5054

CCCCCCCl [1-chlorohexane]
Conditions | mass density, [1] [kg/m3] | refractive index, [2] | speed of sound, [1] [m/s] | viscosity, [1] [mPa·s]
298.15 K | 873.47 | 1.4197 | – | –
303.15 K | 868.78 | 1.4168 | 1184 | 0.6544

CCCCCCCl [1-chlorohexane] + C1CCOC1
Conditions | mass density, [3] [kg/m3] | refractive index, [4] | speed of sound, [3] [m/s] | viscosity, [3] [mPa·s]
x2 = 0.1039 | 869.11 | 1.4161 | 1195 | 0.6407
x2 = 0.305 | 870.03 | 1.4142 | 1216 | 0.6046
x2 = 0.5025 | 871.36 | 1.4122 | 1233 | 0.5698
x2 = 0.7336 | 873.79 | 1.4088 | 1247 | 0.5114
x2 = 0.9013 | 875.66 | 1.4053 | 1252 | 0.4711

CCCCOC(C)=O [butyl ethanoate]
303.15 K
Conditions | mass density [kg/m3] | refractive index | speed of sound [m/s] | viscosity [mPa·s]
[1] | 870.8 | – | 1172 | 0.6453
[2] | – | 1.3896 | – | –

CCCCOC(C)=O [butyl ethanoate] + C1CCOC1
Conditions | mass density, [3] [kg/m3] | refractive index, [4] | speed of sound, [3] [m/s] | viscosity, [3] [mPa·s]
x2 = 0.1033 | 871.17 | 1.3911 | 1177 | 0.6261
x2 = 0.1989 | 871.58 | 1.3924 | 1182 | 0.6085
x2 = 0.3041 | 872.04 | 1.3941 | 1188 | 0.5892
x2 = 0.3995 | 872.51 | 1.3954 | 1194 | 0.5762
x2 = 0.4967 | 873.01 | 1.397 | 1201 | 0.5573
x2 = 0.6013 | 873.59 | 1.3979 | 1210 | 0.5346
x2 = 0.6979 | 874.18 | 1.3991 | 1219 | 0.5107
x2 = 0.7978 | 874.96 | 1.4005 | 1229 | 0.4893
x2 = 0.8999 | 875.79 | 1.4018 | 1241 | 0.4644

CCOC(C)=O [ethyl acetate]
303.15 K
Conditions | mass density [kg/m3] | refractive index | speed of sound [m/s] | viscosity [mPa·s]
[1] | 888.55 | – | 1117 | 0.4043
[2] | – | 1.3664 | – | –

COC(C)=O [methyl ethanoate]
303.15 K
Conditions | mass density [kg/m3] | refractive index | speed of sound [m/s] | viscosity [mPa·s]
[1] | 920.83 | – | 1136 | 0.343
[2] | – | 1.3567 | – | –

COC(C)=O [methyl ethanoate] + C1CCOC1
Conditions | mass density, [3] [kg/m3] | refractive index, [4] | speed of sound, [3] [m/s] | viscosity, [3] [mPa·s]
x2 = 0.1028 | 915.9 | 1.3649 | 1151 | 0.3512
x2 = 0.3022 | 906.64 | 1.3748 | 1178 | 0.3672
x2 = 0.5035 | 897.56 | 1.3847 | 1204 | 0.3841
x2 = 0.693 | 889.35 | 1.3927 | 1226 | 0.4035
x2 = 0.8918 | 881.07 | 1.4008 | 1246 | 0.4251

CCCCCOC(C)=O [pentyl ethanoate]
303.15 K
Conditions | mass density [kg/m3] | refractive index | speed of sound [m/s] | viscosity [mPa·s]
[1] | 867.2 | – | 1197 | 0.7573
[2] | – | 1.3961 | – | –

CCCCCOC(C)=O [pentyl ethanoate] + C1CCOC1
Conditions | mass density, [3] [kg/m3] | refractive index, [4] | speed of sound, [3] [m/s] | viscosity, [3] [mPa·s]
x2 = 0.1067 | 867.69 | 1.3967 | 1198 | 0.7426
x2 = 0.298 | 868.75 | 1.3978 | 1203 | 0.7005
x2 = 0.4997 | 870.25 | 1.3992 | 1212 | 0.6373
x2 = 0.6997 | 872.25 | 1.4005 | 1224 | 0.5686
x2 = 0.9027 | 875 | 1.4021 | 1242 | 0.4829

ClC(Cl)(Cl)Cl [tetrachloromethane]
303.15 K
Conditions | mass density [kg/m3] | refractive index | speed of sound [m/s] | viscosity [mPa·s]
[1] | 1574.82 | – | 905 | 0.8441
[2] | – | 1.4555 | – | –

ClC(Cl)(Cl)Cl [tetrachloromethane] + C1CCOC1
Conditions | mass density, [3] [kg/m3] | refractive index, [4] | speed of sound, [3] [m/s] | viscosity, [3] [mPa·s]
x2 = 0.1068 | 1513.72 | 1.4519 | 932 | 0.8152
x2 = 0.2017 | 1457.18 | 1.4486 | 955 | 0.788
x2 = 0.3004 | 1395.97 | 1.4451 | 982 | 0.758
x2 = 0.396 | 1334.07 | 1.4409 | 1008 | 0.721
x2 = 0.503 | 1261.58 | 1.4357 | 1042 | 0.6782
x2 = 0.6 | 1192.83 | 1.4304 | 1074 | 0.6359
x2 = 0.6923 | 1124.71 | 1.4247 | 1109 | 0.5916
x2 = 0.7949 | 1045.62 | 1.4182 | 1152 | 0.5453
x2 = 0.8889 | 969.98 | 1.4116 | 1196 | 0.4962

C1CCOC1 [tetrahydrofuran]
303.15 K
Conditions | mass density [kg/m3] | refractive index | speed of sound [m/s] | viscosity [mPa·s]
[1] | 876.7 | – | 1255 | 0.4383
[2] | – | 1.4028 | – | –

C1CCOC1 [tetrahydrofuran] + CCOC(C)=O
Conditions | mass density, [3] [kg/m3] | refractive index, [4] | speed of sound, [3] [m/s] | viscosity, [3] [mPa·s]
x1 = 0.0995 | 887.39 | 1.3707 | 1129 | 0.4078
x1 = 0.2035 | 886.11 | 1.375 | 1141 | 0.4082
x1 = 0.3016 | 884.98 | 1.3785 | 1153 | 0.4085
x1 = 0.3923 | 883.95 | 1.3821 | 1165 | 0.4091
x1 = 0.4868 | 882.82 | 1.3858 | 1177 | 0.4111
x1 = 0.5955 | 881.45 | 1.3892 | 1192 | 0.4147
x1 = 0.6973 | 880.21 | 1.3921 | 1206 | 0.4184
x1 = 0.812 | 878.89 | 1.3964 | 1224 | 0.4236
x1 = 0.9 | 877.84 | 1.3995 | 1238 | 0.4287

ClC(Cl)Cl [trichloromethane]
303.15 K
Conditions | mass density [kg/m3] | refractive index | speed of sound [m/s] | viscosity [mPa·s]
[1] | 1470.59 | – | 967 | 0.51
[2] | – | 1.441 | – | –

ClC(Cl)Cl [trichloromethane] + C1CCOC1
Conditions | mass density, [3] [kg/m3] | refractive index, [4] | speed of sound, [3] [m/s] | viscosity, [3] [mPa·s]
x2 = 0.1023 | 1410.89 | 1.438 | 986 | 0.5307
x2 = 0.2085 | 1349.01 | 1.4346 | 1006 | 0.5467
x2 = 0.3045 | 1292.84 | 1.4315 | 1024 | 0.5566
x2 = 0.4278 | 1220.11 | 1.4273 | 1051 | 0.559
x2 = 0.5003 | 1176.98 | 1.4251 | 1070 | 0.558
x2 = 0.6047 | 1114.67 | 1.421 | 1102 | 0.5445
x2 = 0.6976 | 1058.96 | 1.4168 | 1133 | 0.5245
x2 = 0.8077 | 992.59 | 1.4121 | 1174 | 0.4955
x2 = 0.8921 | 941.69 | 1.4079 | 1208 | 0.4676
